Laboratory results as given in BigSolDB 2.1.

O=C(O)/C=C/c1cccc(O)c1
solubility (mole fraction)
Conditions | in ethanol | in ethyl acetate | in isobutanol | in isopropanol | in methanol | in methyl acetate | in n-butanol | in n-propanol | in n-propyl acetate
293.15 K | 0.0594 | 0.0177 | 0.0317 | 0.0611 | 0.0516 | 0.0189 | 0.0474 | 0.0493 | 0.0155
298.15 K | 0.0632 | 0.0201 | 0.0351 | 0.0662 | 0.0557 | 0.0212 | 0.0513 | 0.0533 | 0.0184
303.15 K | 0.0687 | 0.0228 | 0.0397 | 0.0724 | 0.0611 | 0.0239 | 0.0566 | 0.0585 | 0.0212
308.15 K | 0.0742 | 0.0256 | 0.0449 | 0.0794 | 0.0669 | 0.0276 | 0.0617 | 0.064 | 0.0236
313.15 K | 0.0802 | 0.0294 | 0.0502 | 0.0859 | 0.0731 | 0.0315 | 0.0677 | 0.0701 | 0.0269
318.15 K | 0.087 | 0.0329 | 0.0561 | 0.0933 | 0.0801 | 0.0358 | 0.0741 | 0.0766 | 0.0302
323.15 K | 0.0949 | 0.0377 | 0.0628 | 0.101 | 0.0887 | 0.0402 | 0.0806 | 0.0842 | 0.035
328.15 K | 0.103 | 0.0438 | 0.0706 | 0.109 | 0.0995 | 0.0458 | 0.0887 | 0.093 | 0.041
333.15 K | 0.114 | 0.0489 | 0.0802 | 0.12 | 0.113 | – | 0.0989 | 0.104 | 0.0471
